The source of these data is article PMC11218721, “Receptor-Targeted Peptide Conjugates Based on Diphosphines Enable Preparation of ^99mTc and ^188Re Theranostic Agents for Prostate Cancer” (Journal of Nuclear Medicine, 2024).

Data set [1] deals with DU145-PSMA+ prostate cancer cells (DU145 cells transfected to express PSMA receptor). Description: Radiotracer uptake in DU145-PSMA+ prostate cancer cells. The format is cell-based. Conditions: for cellular localization of radioactivity in DU145-PSMA+ cells over time: 15, 30, 60 and 120 min, surface-bound vs internalized fraction; for uptake in DU145-PSMA+ cells: 100 kBq radiotracer, 1 h incubation, percentage added radioactivity, mean ± SD, n = 3–4 biologic repeats in triplicate; for uptake in DU145-PSMA+ cells / uptake in DU145-PSMA+ cells with PMPA block: 37°C; for uptake in DU145-PSMA+ cells with PMPA block: coincubated with PSMA inhibitor PMPA, 1 h. The protocol: (§1) Solutions containing radiotracer (100 kBq in 8–12 μL of phosphate-buffered saline, >95% radiochemical purity) were added to DU145-PSMA+ or LNCaP prostate cancer cells ([22]), and the cells were incubated at 37°C for 1 h. Nonspecific uptake was determined using non–PSMA-expressing cells (DU145, PC3) or by blocking PSMA-expressing cells (DU145-PSMA+, LNCaP) with 2-phosphonomethyl pentanedioic acid (PMPA). After incubation, the cells were washed and samples collected for radioactivity counting. Uptake and localization of ^99mTc radiotracers were measured over time (15, 30, 60, and 120 min) in DU145-PSMA+ or LNCaP cells (supplemental materials).
(§2) To assess the specificity of the new radiotracers for PSMA, [^99mTc]Tc-DP1-PSMAt and [^99mTc]Tc-DP2-PSMAt (100 kBq) were each incubated with DU145-PSMA+ prostate cancer cells (DU145 cells transfected to express PSMA receptor) ([22]). After 1 h of incubation, uptake of each radiotracer was quantified. […] In LNCaP cells, uptake of [^99mTc]Tc-DP1-PSMAt and [^99mTc]Tc-DP2-PSMAt measured 3.7 ± 1.2 %AR and 3.0 ± 0.8 %AR, respectively, whereas uptake of both radiotracers in PC3 cells measured less than 0.3 %AR.
(§3) FIGURE 2. (A) Uptake of radiotracers in PSMA-positive and PSMA-negative prostate cancer cells. (B) Time course uptake and localization of ^99mTc radiotracers in DU145-PSMA cells and LNCaP cells. Data are presented as mean ± SD; n = 3–4 biologic repeats performed in triplicate.

Data set [2] relates to LNCaP prostate cancer cells, which natively express PSMA. Description: Radiotracer uptake in LNCaP prostate cancer cells. The format is cell-based. Conditions: for cellular localization of radioactivity in LNCaP cells over time: 15, 30, 60 and 120 min, surface-bound vs internalized fraction; for uptake in LNCaP cells: 100 kBq radiotracer, 1 h incubation, percentage added radioactivity, mean ± SD, n = 3–4 biologic repeats in triplicate; for uptake in LNCaP cells / uptake in LNCaP cells with PMPA block: 37°C; for uptake in LNCaP cells with PMPA block: blocked with PMPA, 1 h. The protocol:
as §1, §2, §3

For data set [3], the system named is parental DU145 cells that do not express PSMA. Description: Radiotracer uptake in parental DU145 cells (non-PSMA-expressing). In kind it is cell-based. The conditions noted are these: 100 kBq, 1 h, 37°C. The protocol:
as §1, §2, §3

The next data set relates to PC3 cells. Description: Radiotracer uptake in PC3 cells (non-PSMA-expressing). The format is cell-based. The conditions noted are these: 100 kBq, 1 h, 37°C; cells do not express PSMA. The protocol: as §1, §2, §3
The subject of data set [4] is DU145-PSMA+ xenograft tumors. Description: Ex vivo biodistribution in SCID/beige mice bearing DU145-PSMA+ xenograft tumors. The conditions noted are these: 2 h after injection; for effect of PMPA coadministration on kidney retention (in words): SCID/beige mice bearing DU145-PSMA+ tumors; for mean difference in spleen retention, radiotracer only vs with PMPA / mean difference in tumor uptake, radiotracer only vs with PMPA: SCID/beige mice; for mean difference in tumor uptake, radiotracer only vs with PMPA: DU145-PSMA+ tumors. The procedure: (§4) All animal experiments were ethically reviewed by an Animal Welfare and Ethical Review Board at either King’s College London or Barts Cancer Institute and were performed in accordance with the Animals (Scientific Procedures) Act 1986 U.K. Home Office regulations governing animal experimentation. Subcutaneous prostate cancer DU145-PSMA+ or DU145 xenografts were produced in SCID/beige mice (male, 7–12 wk old). Subcutaneous LNCaP prostate cancer xenografts were produced in athymic nude mice (Crl:NU(NCr)-Foxn1^nu, male, 6–7 wk old). SPECT/CT and biodistribution studies using ^99mTc and ^188Re radiotracers were performed once a tumor had reached an appropriate size (supplemental materials).
The biodistributions of [^99mTc]Tc-DP1-PSMAt and [^99mTc]Tc-DP2-PSMAt were assessed in male SCID/beige mice bearing DU145-PSMA+ xenograft tumors (Fig. 3). Each mouse was administered either [^99mTc]Tc-DP1-PSMAt or [^99mTc]Tc-DP2-PSMAt and euthanized at 2 h after injection (n = 5), followed by organ harvesting for ex vivo radioactivity counting.
(§5) FIGURE 3. (A) Biodistribution (2 h after injection) of SCID/beige mice bearing DU145-PSMA+ prostate cancer tumors, administered either ^99mTc or ^188Re radiotracers intravenously. To assess specificity of radiotracer uptake, additional groups of mice were also coadministered radiotracer and PMPA (Supplemental Tables 3 and 4). (B) Whole-body SPECT/CT maximum-intensity projections of SCID/beige mice bearing either DU145-PSMA+ tumors or DU145 tumors, administered either [^99mTc]Tc-DP1-PSMAt or [^99mTc]Tc-DP2-PSMAt, 2 h after injection. To inhibit uptake in DU145-PSMA+ tumors, animals were also coadministered PMPA.
To assess the specificity of each radiotracer, separate groups of animals, also bearing DU145-PSMA+ tumors, were coadministered either [^99mTc]Tc-DP1-PSMAt and PMPA or [^99mTc]Tc-DP2-PSMAt and PMPA to inhibit PSMA-mediated uptake of radiotracer (n = 5). […] For [^99mTc]Tc-DP1-PSMAt, coadministration decreased uptake to 0.91 ± 0.29 %ID/g in tumors (compared with administration of [^99mTc]Tc-DP1-PSMAt only: mean difference of 17.12 %ID/g, P = 4 × 10^−4). For [^99mTc]Tc-DP2-PSMAt, coadministration decreased uptake to 0.76 ± 0.45 %ID/g in tumors (compared with administration of [^99mTc]Tc-DP2-PSMAt only: mean difference of 28.62 %ID/g, P = 5 × 10^−4).

Another data set has as its system DU145-PSMA+ tumors. Description: SPECT/CT imaging of mice bearing DU145-PSMA+ tumors. The format is in vivo, SCID/beige mice. Conditions: radiotracer only, 2 h and 24 h after injection. The protocol: as §4
as §5, with “PMPA. […]” for “PMPA.”

For `O=C(O)CC[C@H](NC(=O)N[C@@H](CCCCNC(=O)CCOCCOCCOCCOCCNC(=O)/C(=C(\C(=O)O)P(c1ccccc1)c1ccccc1)P(c1ccccc1)c1ccccc1)C(=O)O)C(=O)O` [[^99mTc]Tc-DP1-PSMAt] [metal not drawn], in data set [1], the “cellular localization of radioactivity in DU145-PSMA+ cells over time” value is listed as “most cell-associated radioactivity was found in the internalized cell fraction”, the “uptake in DU145-PSMA+ cells” value is on record as 12.4 ± 2.8 %AR and the “uptake in DU145-PSMA+ cells with PMPA block” value is recorded as “could be blocked with PMPA”. Besides, in data set [2], the “cellular localization of radioactivity in LNCaP cells over time” value is given as “most cell-associated radioactivity was found in the internalized cell fraction”, the “uptake in LNCaP cells” value was 3.7 ± 1.2 %AR and the “uptake in LNCaP cells with PMPA block” value was “could also be blocked with PMPA”. In addition, the “uptake in parental DU145 cells” value in data set [3] was “negligible uptake”. In addition, the “uptake in PC3 cells” value in the data set with PC3 cells was “less than 0.3 %AR”. Further, in data set [4], the “effect of PMPA coadministration on kidney retention (in words)” value is “significantly decreased”; the “mean difference in spleen retention, radiotracer only vs with PMPA” value was determined as 11.8 %ID/g; the “mean difference in tumor uptake, radiotracer only vs with PMPA” value was determined as 17.12 %ID/g. Besides, the “tumor delineation in SPECT/CT scans” value with DU145-PSMA+ tumors is on record as “tumors could be clearly delineated”.

With `Cc1ccc(P(/C(C(=O)O)=C(/C(=O)NCCOCCOCCOCCOCCC(=O)NCCCC[C@H](NC(=O)N[C@@H](CCC(=O)O)C(=O)O)C(=O)O)P(c2ccc(C)cc2)c2ccc(C)cc2)c2ccc(C)cc2)cc1` [[^99mTc]Tc-DP2-PSMAt] [metal not drawn], in data set [1], the “cellular localization of radioactivity in DU145-PSMA+ cells over time” value was “most cell-associated radioactivity was found in the internalized cell fraction”, the “uptake in DU145-PSMA+ cells” value is 7.8 ± 1.3 %AR and the “uptake in DU145-PSMA+ cells with PMPA block” value is “could be blocked with PMPA”. In addition, in data set [2], the “cellular localization of radioactivity in LNCaP cells over time” value is reported as “most cell-associated radioactivity was found in the internalized cell fraction”, the “uptake in LNCaP cells” value is reported as 3.0 ± 0.8 %AR and the “uptake in LNCaP cells with PMPA block” value was “could also be blocked with PMPA”. Also, the “uptake in parental DU145 cells” value in data set [3] is given as “negligible uptake”. For the same compound, in the data set on PC3 cells, the “uptake in PC3 cells” value was “less than 0.3 %AR”. Further, in data set [4], the “effect of PMPA coadministration on kidney retention (in words)” value is “much less pronounced”; the “mean difference in spleen retention, radiotracer only vs with PMPA” value was determined as 7.4 %ID/g; the “mean difference in tumor uptake, radiotracer only vs with PMPA” value came to 28.62 %ID/g. Moreover, the “tumor delineation in SPECT/CT scans” value in the data set with DU145-PSMA+ tumors was “tumors could be clearly delineated”.
